Laboratory results published in patent publication US20160291027A1, “METHODS FOR […] ABILITY OF A Z[…] COMPOUND TO TREAT CANCER” (Eisai R&D Management Co., Ltd., priority 2007, published 2016).

What was measured:
[1] = system: SF-295 human glioblastoma xenografts; test: Plasma human IL-8 (ELISA) in tumor bearing mice; assay type: in vivo; details: SF-295 tumor bearing mice; 40 mg/kg i.v. QD×4; 24 hours after the fourth dosing
Source text: (§1) In order to determine whether plasma IL-8 levels could be measurable in tumor xenograft bearing mice and whether plasma IL-8 levels change after treatment with Compound 106, COLO-829 and UACC-62 melanoma xenografts were established as Compound 106 sensitive xenografts in female nude mice. SF-295 human glioblastoma (BRAF wild-type) xenografts were established as an Compound 106 resistant tumor model in female nude mice. Female athymic NU/NU mice were inoculated subcutaneously with COLO-829, UACC-62 human melanoma cancer cells, or SF-295 human glioblastoma cells. Those animals that developed tumors of approximately 250 mm^3 were selected and randomized to two groups. The experiment consisted of a vehicle-treated and 40 mg/kg Compound 106-treated groups of 8 mice per group on the first day of treatment. Compound 106 was administered intravenously (i.v.) on a QD×4 (every day for a total of four injections) dosing schedule. The subcutaneous tumor volumes were measured on the first day of treatment and 24 hours after the fourth treatment. Heparinized blood was collected from these mice 24 hours after the fourth treatment with Compound 106 using a cardiac puncture, and plasma was isolated. The levels of human IL-8 in the plasma were determined by ELISA.

[2] = system: UACC-62 melanoma xenografts; test: Plasma human IL-8 (ELISA) in tumor bearing mice; assay type: in vivo; details: UACC-62 xenograft; 40 mg/kg i.v. QD×4; 24 hours after the fourth dosing
Source text: as §1

[3] = system: COLO-829 melanoma xenografts; test: Plasma human IL-8 (ELISA) in tumor bearing mice; assay type: in vivo; details: COLO-829 xenograft; 40 mg/kg i.v. QD×4; 24 hours after the fourth dosing
Source text: as §1

RPMI-7951 = test: CellTiter-Glo cell growth assay; assay type: cell-based; details: RPMI-7951, BRAF mutated melanoma, elevated pAKT; 10 μmol/L to 0.0003 μmol/L
Description: (§2) In order to determine whether Compound 106 resistance is associated with constitutive AKT phosphorylation as a result of activation of the PI3K signaling pathway, a panel of 10 BRAF mutated melanoma cell lines and a BRAF wild-type glioblastoma cancer cell line, SF-295, were tested using different concentrations of Compound 106 ranging from 10 μmol/L to 0.0003 μmol/L.
(§3) All assays were performed in a 96 well format. For these cell lines, protein lysates were collected in a separate experiment, which allowed for the evaluation of the constitutive level of AKT phosphorylation and correlation between the level of phosphorylated AKT (pAKT) and Compound 106 sensitivity. Cell growth was assessed using CellTiter-Glo® Luminescent Cell Viability Assay (Promega). Phosphorylated AKT protein was analyzed by Western blotting, with total AKT being used as a loading control.

[4] = system: wildtype xenograft models (pancreatic cell lines); test: Other xenograft models, wildtype; assay type: in vivo, mice; details: 40 mg/kg i.v. QD×5 for 2 weeks
Description: Additionally, one, five, and seven out of eight animals in the groups treated with Compound 106 at doses of 10, 20, or 40 mg/kg, respectively, were tumor-free at the end of the study on day 59. […] Compound 106 was also tested in other xenograft models, in which BRAF-mutated cells, including breast, colon, and melanoma cell lines, or wildtype cells, including pancreatic cell lines, were transplanted subcutaneously into female nude mice. Compound 106 or a vehicle control was administered intravenously.

[5] = system: panel of 31 melanoma cell lines; test: MTS cell viability assay in a panel of 31 melanoma cell lines; assay type: cell-based; details: for % of Less Sensitive cell lines / Less sensitive cell lines (number/total) / Sensitive cell lines (number/total): Cut-Off IC50 < 100 nmol/L; for Number of sensitive cell lines: sensitivity defined as IC50<500 nmol/L
Description: Cell viability was also assessed in a panel of 31 melanoma cell lines carrying different mutations in BRAF following treatment with a zearalenone analog compound, Compound 106. All assays were performed in a 96 well format. Cell viability was assessed after four days following treatment. Cell viability was assessed with a MTS Assay (CellTiter96®AqueousOne Solution Cell Proliferation Assay, Promega) in a panel of cell lines carrying various BRAF mutations to determine the effect of BRAF genotype on drug sensitivity. The mutational status of these cell lines and IC50 in nmol/L is depicted in FIG. 3C.
Cell viability was assessed in a panel of melanoma cell lines carrying different mutations in BRAF, and PTEN following treatment with the MEK inhibitor, Compound 106. The panel of 31 melanoma cell lines was tested with eight concentrations of Compound 106 ranging from 10 μmol/L to 0.0003 μmol/L of Compound 106. (The panel of cell lines also carries mutations in one or more additional genes associated with cancer).
All assays were performed in a 96 well format. Cell viability was assessed after four days following treatment. Cell viability was assessed with a MTS Assay (CellTiter96®AqueousOne Solution Cell Proliferation Assay, Promega) to determine the effect of genotype on drug sensitivity.

SF-295 = test: CellTiter-Glo cell growth assay; assay type: cell-based, human; details: SF-295, BRAF wild-type glioblastoma, elevated pAKT; 10 μmol/L to 0.0003 μmol/L
Description: as §2, §3

[6] = mutant BRAF gene (20 cell lines)
[7] = total cell lines (31 cell lines)
[8] = wild-type BRAF gene (11 cell lines)

With `CCNc1cc(O)c2c(c1)/C=C/C[C@H](O)[C@H](O)C(=O)/C=C\[C@@H](C)[C@H](C)OC2=O` [Compound 106] the “Plasma IL-8 levels” value [1] was “did not change”, the “Plasma IL-8 levels” value [2] was “almost completely blocked” and the “Plasma IL-8 levels” value [3] was “almost completely blocked”. For the same molecule, the “Sensitivity of cell line” value (RPMI-7951) was “resistant”, the tumor regression [4] was 30-40% and the “% of Less Sensitive cell lines” value [5, 6] was “(25%)”. For the same molecule, the “Less sensitive cell lines (number/total)” value [5, 6] was 5/20, the “Sensitive cell lines (number/total)” value [5, 6] was 15/20 and the “% of Less Sensitive cell lines” value [5, 7] was “(42%)”. For the same molecule, the “Less sensitive cell lines (number/total)” value [5, 7] was 13/31, the “% of Less Sensitive cell lines” value [5, 8] was “(73%)” and the “Less sensitive cell lines (number/total)” value [5, 8] was 8/11. The “Sensitive cell lines (number/total)” value [5, 8] was 3/11, the “% of Cell lines with IC50 < 100 nmol/L” value ([5]; PTEN gene Mutant (8 cell lines), Total) was “(50%)” and the “% of Cell lines with IC50 < 100 nmol/L” value ([5]; PTEN gene Mutant, BRAF Mutant) was “(50%)”. The “% of Cell lines with IC50 < 100 nmol/L” value ([5]; PTEN gene Mutant, BRAF Wild Type) was “(0%)”, the “% of Cell lines with IC50 < 100 nmol/L” value ([5]; PTEN gene Wild Type (23 cell lines), Total) was “(65%)” and the “% of Cell lines with IC50 < 100 nmol/L” value ([5]; PTEN gene Wild Type, BRAF Mutant) was “(86%)”. The “% of Cell lines with IC50 < 100 nmol/L” value ([5]; PTEN gene Wild Type, BRAF Wild Type) was “(33%)”, the “% of Cell lines with IC50 < 100 nmol/L” value ([5]; p-AKT expression High (G2-G3), BRAF Mutant) was “(67%)” and the “% of Cell lines with IC50 < 100 nmol/L” value ([5]; p-AKT expression High (G2-G3), BRAF Wild Type) was “(0%)”. For the same molecule, the “% of Cell lines with IC50 < 100 nmol/L” value ([5]; p-AKT expression High (G2-G3), Total) was “(57%)”, the “% of Cell lines with IC50 < 100 nmol/L” value ([5]; p-AKT expression Low (G0-G1), BRAF Mutant) was “(79%)” and the “% of Cell lines with IC50 < 100 nmol/L” value ([5]; p-AKT expression Low (G0-G1), BRAF Wild Type) was “(30%)”. The “% of Cell lines with IC50 < 100 nmol/L” value ([5]; p-AKT expression Low (G0-G1), Total) was “(58%)”, the “Number of sensitive cell lines” value ([5]; of the 8 cell lines with mutant PTEN or loss of PTEN) was 3 cell lines and the “Number of sensitive cell lines” value ([5]; of the 23 cell lines with wild-type PTEN) was 12 cell lines. For the same molecule, the “Sensitivity of cell line” value (SF-295) was “resistant”.
